According to ChEMBL document CHEMBL3352087 (J Med Chem, 2014):
Values after ≈ are worked out from the molar mass of the structure shown.

Key:
Mus musculus = assay: Unbound clearance in CD-1 mouse at 3 mg/kg, iv and 10 mg/kg, po; type: ADME, organism-based; settings: in vivo
Plasma [1] = assay: Free plasma concentration in CD-1 mouse at 3 mg/kg, iv and 10 mg/kg, po measured at 1 hr post dose; type: ADME, organism-based; settings: in vivo
Brain [2] = assay: Free drug level in CD-1 mouse brain at 3 mg/kg, iv and 10 mg/kg, po measured at 4 hrs post dose; type: ADME, organism-based; settings: in vivo
[3] = Systemic clearance in CD-1 mouse at 3 mg/kg, iv and 10 mg/kg, po; type: ADME, organism-based; settings: in vivo, read-out: CLH
Brain [4] = assay: Free drug level in CD-1 mouse brain at 3 mg/kg, iv and 10 mg/kg, po measured at 1 hr post dose; type: ADME, organism-based; settings: in vivo
Plasma [5] = assay: Free plasma concentration in CD-1 mouse at 3 mg/kg, iv and 10 mg/kg, po measured at 4 hrs post dose; type: ADME, organism-based; settings: in vivo
Beta-secretase 1 [6] = target: T1, Beta-secretase 1 (Homo sapiens, UniProt P56817); assay: Inhibition of BACE1 in HEK293 cells expressing swedish double mutant APP assessed as amyloid beta (1 to 40) peptide level after 7 hrs by HTRF assay; type: cell-based
T1 sequence (P56817 whole entry): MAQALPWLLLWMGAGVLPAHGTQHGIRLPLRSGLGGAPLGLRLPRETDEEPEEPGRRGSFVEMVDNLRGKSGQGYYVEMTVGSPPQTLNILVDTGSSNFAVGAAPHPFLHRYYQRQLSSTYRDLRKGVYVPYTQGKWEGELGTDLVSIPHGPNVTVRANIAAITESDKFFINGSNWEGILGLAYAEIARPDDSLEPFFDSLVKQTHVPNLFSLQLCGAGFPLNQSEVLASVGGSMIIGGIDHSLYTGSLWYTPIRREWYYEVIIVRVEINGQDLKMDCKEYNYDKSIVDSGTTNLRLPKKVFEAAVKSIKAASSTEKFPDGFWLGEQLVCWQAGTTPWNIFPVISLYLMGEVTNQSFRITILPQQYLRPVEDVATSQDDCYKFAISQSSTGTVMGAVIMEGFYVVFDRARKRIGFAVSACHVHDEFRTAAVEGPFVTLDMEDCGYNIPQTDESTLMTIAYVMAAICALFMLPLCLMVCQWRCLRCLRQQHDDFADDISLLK

Beta-secretase 1 [7] = target: T1, Beta-secretase 1; assay: Inhibition of purified recombinant human BACE1 expressed in CHO cells assessed as uncleaved biotinylated sAPP after 2 hrs by HTRF assay
MDR1 (human) [8] = assay: (§1) Apparent permeability from apical to basolateral side in pig LLC-PK1 cells transfected with human MDR1; type: ADME, cell-based, Sus scrofa; settings: LLC-PK1
MDR1 (human) [9] = assay: (§2) Efflux ratio of permeability from basolateral to apical side to apical to basolateral side in pig LLC-PK1 cells transfected with human MDR1 at 1 uM; type: ADME, cell-based, Sus scrofa; settings: LLC-PK1
CHO = assay: Ratio of IC50 for cathepsin D purified from human spleen to IC50 for purified recombinant human BACE1 expressed in CHO cells
[10] = Ratio of free drug level in brain to plasma of Sprague-Dawley rat at 60 mg/kg, po measured at 3 hrs post dose; type: ADME, organism-based; set-up: dose 60 mg/kg, route oral; settings: brain and plasma, read-out: BPR
[11] = Drug level in Sprague-Dawley rat CSF at 60 mg/kg, po measured at 5 hrs post dose; type: ADME, organism-based, Cerebrospinal fluid; set-up: dose 60 mg/kg, route oral; settings: read-out: Drug uptake
Brain [12] = assay: Free drug level in Sprague-Dawley rat brain at 60 mg/kg, po measured at 3 hrs post dose; type: ADME, organism-based; set-up: dose 60 mg/kg, route oral; settings: in vivo
[13] = Ratio of free drug level in brain to plasma of Sprague-Dawley rat at 60 mg/kg, po measured at 5 hrs post dose; type: ADME, organism-based; set-up: dose 60 mg/kg, route oral; settings: brain and plasma, read-out: BPR
[14] = Ratio of free drug level in brain of Sprague-Dawley rat at 60 mg/kg, po measured at 3 hrs post dose to IC50 for BACE1 in HEK293 cells expressing swedish double mutant APP; type: ADME, organism-based; set-up: dose 60 mg/kg, route oral; settings: in vivo
LLC-PK1 [15] = assay: as §1; type: ADME, cell-based, Sus scrofa; settings: llc-pk1
[16] = Ratio of free drug level in brain of Sprague-Dawley rat at 60 mg/kg, po measured at 5 hrs post dose to IC50 for BACE1 in HEK293 cells expressing swedish double mutant APP; type: ADME, organism-based; set-up: dose 60 mg/kg, route oral; settings: in vivo
[17] = Solubility of the compound at pH 7.2; type: physicochemical; settings: buffer
Brain [18] = assay: Free drug level in Sprague-Dawley rat brain at 60 mg/kg, po measured at 5 hrs post dose; type: ADME, organism-based; set-up: dose 60 mg/kg, route oral; settings: in vivo
LLC-PK1 [19] = assay: as §2; type: ADME, cell-based, Sus scrofa; settings: llc-pk1, 1 µM, 1 µM
Rattus norvegicus [20] = assay: Reduction in amyloid beta(1 to 40) in Sprague-Dawley rat CSF at 60 mg/kg, po measured at 5 hrs post dose; type: functional; set-up: scale not given: the % may be the effect or the level left
Plasma [21] = assay: Free plasma concentration in Sprague-Dawley rat at 60 mg/kg, po measured at 5 hrs post dose; type: ADME, organism-based; set-up: dose 60 mg/kg, route oral; settings: in vivo
[22] = Drug level in Sprague-Dawley rat CSF at 60 mg/kg, po measured at 3 hrs post dose; type: ADME, organism-based, Cerebrospinal fluid; set-up: dose 60 mg/kg, route oral; settings: read-out: Drug uptake
[23] = Fraction unbound in Sprague-Dawley rat brain; type: ADME, tissue-based
Plasma [24] = assay: Free plasma concentration in Sprague-Dawley rat at 60 mg/kg, po measured at 3 hrs post dose; type: ADME, organism-based; set-up: dose 60 mg/kg, route oral; settings: in vivo
Rattus norvegicus [25] = assay: Reduction in amyloid beta(1 to 40) in Sprague-Dawley rat CSF at 60 mg/kg, po measured at 3 hrs post dose; type: functional; set-up: scale not given: the % may be the effect or the level left
[26] = Ratio of free drug level in brain of CD-1 mouse at 3 mg/kg, iv and 10 mg/kg, po measured at 4 hrs post dose to IC50 for BACE1 in HEK293 cells expressing swedish double mutant APP; type: ADME, organism-based; settings: hek293, 4 h
[27] = Fraction unbound in CD-1 mouse brain; type: ADME, tissue-based
[28] = Fraction unbound in CD-1 mouse plasma; type: ADME, cell-free
[29] = Ratio of free drug level in brain to plasma of CD-1 mouse brain at 3 mg/kg, iv and 10 mg/kg, po measured at 4 hrs post dose; type: ADME, organism-based; settings: read-out: BPR
[30] = Ratio of free drug level in brain of CD-1 mouse at 3 mg/kg, iv and 10 mg/kg, po measured at 1 hr post dose to IC50 for BACE1 in HEK293 cells expressing swedish double mutant APP; type: ADME, organism-based; settings: hek293, 1 h
[31] = Ratio of free drug level in brain to plasma of CD-1 mouse at 3 mg/kg, iv and 10 mg/kg, po measured at 1 hr post dose; type: ADME, organism-based; settings: read-out: BPR

Compound	IC50 (Beta-secretase 1 [6]) [nM]	IC50 (Beta-secretase 1 [7]) [nM]	Papp A→B (MDR1 (human) [8]) [×10⁻⁶ cm/s]	efflux ratio at 1 µM (MDR1 (human) [9])	Ratio IC50 (CHO)	other results
CN1C(=O)[C@]2(N=C1N)c1cc(-c3cccnc3F)ccc1O[C@H]1CCOC[C@@H]12						CL free (Mus musculus): 330 mL/min/kg; Cp(f) (Plasma [1]): 320 nM; Drug uptake (Brain [2]): 8.4 nM; clearance [3]: 70 mL/min/kg; Drug uptake (Brain [4]): 11 nM; Cp(f) (Plasma [5]): 75 nM
NC1=N[C@@]2(CO1)c1cc(-c3cccnc3F)ccc1O[C@@H]1CCCO[C@H]12	759	1100				
NC1=N[C@@]2(CS1)c1cc(-c3cccnc3F)ccc1O[C@@H]1CCCO[C@H]12	550	810	37	1.2	> 250	
C[C@]12CCCO[C@@H]1[C@]1(COC(N)=N1)c1cc(-c3cccc(C#N)c3)ccc1O2 [listing 2 of 2 here]					1300	
C[C@]12CCCO[C@@H]1[C@]1(COC(N)=N1)c1cc(-c3cccc(C#N)c3)ccc1O2 (racemic) [listing 2 of 2 here]					840	
CN1C(=O)[C@]2(N=C1N)c1cc(-c3cccnc3F)ccc1O[C@@H]1CCCO[C@H]12 (relative stereo)	1900	700			19	
C[C@]12CCCO[C@@H]1[C@]1(CSC(N)=N1)c1cc(-c3cccnc3F)ccc1O2 (relative stereo)	86	27	31	2	890	
C[C@]12CCCO[C@@H]1[C@]1(COC(N)=N1)c1cc(-c3cc(F)cc(Cl)c3)ccc1O2 (relative stereo)	93	55	5.6	1.7	530	
C[C@]12CCCO[C@@H]1[C@]1(CSC(N)=N1)c1cc(-c3cccc(C#N)c3)ccc1O2 (relative stereo)	140	41	14	1.8	680	
C[C@]12CCCO[C@@H]1[C@]1(COC(N)=N1)c1cc(-c3cncnc3)ccc1O2 (single isomer, unassigned)	56	89	23	9.8	> 2200	

More lines, in order of falling IC50 (Beta-secretase 1 [6]), values ahead:

IC50 (Beta-secretase 1 [6]) [nM]	IC50 (Beta-secretase 1 [7]) [nM]	Papp A→B (MDR1 (human) [8]) [×10⁻⁶ cm/s]	efflux ratio at 1 µM (MDR1 (human) [9])	Compound	Ratio IC50 (CHO)	other results
130	210	33	4.8	C[C@@]12CCCO[C@H]1[C@]1(COC(N)=N1)c1cc(-c3cccnc3F)ccc1O2 (relative stereo)	48	
110	41	1.4	1.2	C[C@]12CCCO[C@@H]1[C@]1(CSC(N)=N1)c1cc(-c3cc(F)cc(Cl)c3)ccc1O2 (relative stereo)	830	
100	98	30	3.2	C[C@]12CCCO[C@@H]1[C@]1(COC(N)=N1)c1cc(-c3cccc(C#N)c3)ccc1O2 (racemic) [listing 1 of 2 here]		Ratio [26]: 0.075; fraction unbound [27]: 0.013; CL free (Mus musculus): 870 mL/min/kg; Cp(f) (Plasma [1]): 54 nM; fraction unbound [28]: 0.039; Drug uptake (Brain [2]): 7.5 nM; clearance [3]: 34 mL/min/kg; Kp uu at 4 h [29]: 0.21; Ratio [30]: 0.13; Kp uu at 1 h [31]: 0.24; Drug uptake (Brain [4]): 13 nM; Cp(f) (Plasma [5]): 35 nM
81	56	29	3.1	C[C@]12CCCO[C@@H]1[C@]1(CSC(N)=N1)c1cc(-c3cncnc3)ccc1O2 (relative stereo)	1100	
60	76	29	6.2	C[C@]12CCCO[C@@H]1[C@]1(COC(N)=N1)c1cc(-c3cccnc3F)ccc1O2 (relative stereo)	430	Ratio [26]: 0.018; fraction unbound [27]: 0.04; CL free (Mus musculus): 1300 mL/min/kg; Cp(f) (Plasma [1]): 37 nM; fraction unbound [28]: 0.11; Drug uptake (Brain [2]): 1.1 nM; clearance [3]: 150 mL/min/kg; Kp uu at 4 h [29]: 0.16; Ratio [30]: 0.1; Kp uu at 1 h [31]: 0.16; Drug uptake (Brain [4]): 6 nM; Cp(f) (Plasma [5]): 6.8 nM
48	51	12	3.3	C[C@]12CCCO[C@@H]1[C@]1(CSC(N)=N1)c1cc(-c3cncc(Cl)c3)ccc1O2 (relative stereo)	1100	
39	45			C[C@]12CCCO[C@@H]1[C@]1(COC(N)=N1)c1cc(-c3cccc(C#N)c3)ccc1O2 [listing 1 of 2 here]		Kp uu at 3 h [10]: 0.33; concentration at 5 h [11]: 230 nM; Drug uptake(free) (Brain [12]): 88 nM; Kp uu at 5 h [13]: 0.32; Ratio [14]: 2.3; Papp (LLC-PK1 [15]): 19 ×10⁻⁶ cm/s; Ratio [16]: 2.1; solubility [17]: 57 µg/mL (≈ 152 µM); Drug uptake(free) (Brain [18]): 80 nM; Ratio (LLC-PK1 [19]): 3.4; Activity (Rattus norvegicus [20]): 69%; Cp(f) (Plasma [21]): 250 nM; concentration at 3 h [22]: 150 nM; fraction unbound [23]: 0.014; Cp(f) (Plasma [24]): 270 nM; Activity (Rattus norvegicus [25]): 63%
37	52	25	7.1	C[C@]12CCCO[C@@H]1[C@]1(COC(N)=N1)c1cc(-c3cncc(Cl)c3)ccc1O2 (racemic)	2100	
37	26	6	31	CN1C(=O)[C@]2(N=C1N)c1cc(-c3cccnc3F)ccc1O[C@]1(C)CCCO[C@H]12 (relative stereo)	69	
12	48	6.8	31	CN1C(=O)[C@]2(N=C1N)c1cc(-c3cccnc3F)ccc1O[C@H]1CCCO[C@@H]12 (relative stereo)	50	Ratio [26]: 0.13; fraction unbound [27]: 0.037; CL free (Mus musculus): 600 mL/min/kg; Cp(f) (Plasma [1]): 120 nM; fraction unbound [28]: 0.18; Drug uptake (Brain [2]): 1.6 nM; clearance [3]: 110 mL/min/kg; Kp uu at 4 h [29]: 0.044; Ratio [30]: 0.14; Kp uu at 1 h [31]: 0.014; Drug uptake (Brain [4]): 1.7 nM; Cp(f) (Plasma [5]): 36 nM
5.7	13	5.3	110	CN1C(=O)[C@]2(N=C1N)c1cc(-c3cccnc3F)ccc1O[C@@]1(C)CCCO[C@@H]12 (relative stereo)	510	
